Source: patent publication US4239709A, “Process for preparing optically active oxazaphosphorins” (Otsuka Pharmaceutical Co., Ltd., priority 1978, dated 1980)
Read-outs that look alike come from different tables or passages of the source.

Assays:
[1] = test system: Lymphoid leukemia L-1210 solid-type tumor; experiment: L1210 Tumor test (solid-type tumor, subcutaneous, inhibition of tumor proliferation by tumor weight); type: in vivo, BDF1 male mice; conditions: Mus musculus, L1210, sc, I.O. (so in the source)
[2] = test system: Lymphoid leukemia L-1210 solid-type tumor; experiment: as above; type: in vivo, BDF1 male mice; conditions: for ED50 / ED90: Mus musculus; for ED50 / ED90 / ID50 / ID90: L1210 tumor; for ED50: read-out: ID50 (the source's name); for ED90: read-out: ID90 (the source's name)
Protocol: (§1) Lymphoid leukemia L-1210 solid-type tumor was transplanted (1×10^6 cells) in subcutis on the back of BDF1 male mice having the body weight of about 22 g. The mice were killed 10-11 days after the transplantation and the inhibitory effect of tumor proliferation was evaluated by measuring the weight of tumor.
(§2) Each of 5, 10, 20, 50, 100 mg of compounds to be tested is dissolved in a phisiological NaCl solution (5 mg/kg of concentration) and administered by intraperitoneal injection (I.P.) or orally (P.O.). As to the reference the phisiological NaCl solution (5 mg/kg of concentration) was used.

[3] = test system: Lymphocytic leukemia P388 tumor; experiment: P388 tumor test (Table 2, headed P328 Tumor test); type: in vivo, BDF1 male mice; conditions: for ED50 / ED90: Mus musculus, P388, ip; for ED50: read-out: ID50 (the source's name); for ED90: read-out: ID90 (the source's name)
Protocol: Lymphocytic leukemia P388 liquid-type tumor was transplanted (1×10^6 cells) in abdominal cavity of BDF1 male mice having the body weight of about 20 g. The effect was evaluated by a method of ILS (Increase in life span).
as §1, with “Similarly lymphocytic” for “Lymphoid”, “P388” for “L-1210”, “15 to 16” for “10-11”
as §2

[4] = Acute toxicity test (LD50); type: in vivo, ICR male mice; conditions: for LD50: ICR male mice, I.P.
Description: LD50 (mg/kg) values (ICR male mice, I.P.) of R-(+)-cyclophosphamide, S-(-)-cyclophosphamide and racemic form of cyclophosphamide are shown below.

PC6-Tumor = conditions: compared with R-(+)-cyclophosphamide and racemic form; Cox et al. 1976; cited from earlier work
[5] = compared with R-(+)-cyclophosphamide; Cox et al. 1976; cited from earlier work
[6] = P328 Tumor test (so in the source), I.P.
[7] = mouse, in vivo, ip, read-out: LD50

In the case of `O=P1(N(CCCl)CCCl)NCCCO1` (racemic) [Racemic form of cyclophosphamide, cyclophosphamide], the ED50 ([1]; read-out: ID50 (the source's name)) is reported as 33 mg/kg, the ED90 ([1]; read-out: ID90 (the source's name)) is reported as 107 mg/kg and the ED50 ([2]; L1210, po, P.O.) is reported as 28 mg/kg. The ED90 ([2]; L1210, po, P.O.) was 90 mg/kg, the ED50 [3, 6] was 12.9 mg/kg and the ED90 [3, 6] was 39.7 mg/kg. The LD50 [4, 7] was 440 mg/kg.
`O=P1(N(CCCl)CCCl)NCCCO1` (single isomer, unassigned) [R-(+)-cyclophosphamide] showed an ED50 ([2]; L1210, ip, I.P.) of 32 mg/kg, an ED90 ([2]; L1210, ip, I.P.) of 104 mg/kg and an ED50 ([2]; L1210, po, P.O.) of 24 mg/kg. For the same molecule, the ED90 ([2]; L1210, po, P.O.) was 76 mg/kg, the “anti-tumor effect against L 1210-Tumor” value ([2]; compared with S-(-)-cyclophosphamide and racemic form) was “better anti-tumor effect than those of shown by S-(-)-cyclophosphamide and racemic form of cyclophosphamide” and the ED50 [3, 6] was 24.3 mg/kg. For the same molecule, the ED90 [3, 6] was 50.8 mg/kg, the acute toxicity ([4]; in mice, compared with S-(-)-cyclophosphamide and racemic form) was “lower acute toxicity (in mice) than those shown by S-(-)-cyclophosphamide and racemic form of cyclophosphamide” and the LD50 [4, 7] was 550 mg/kg.
In the case of `O=P1(N(CCCl)CCCl)NCCCO1` (single isomer, unassigned) [S-(-)-cyclophosphamide], the ID50 ([2]; I.P.) is reported as 44 mg/kg, the ID90 ([2]; I.P.) is reported as 143 mg/kg and the ID50 ([2]; P.O.) is reported as 29 mg/kg. The ID90 ([2]; P.O.) was 95 mg/kg, the “anti-tumor effect against PC6-Tumor” value (PC6-Tumor) was “better than those of R-(+)-cyclophosphamide and racemic form of cyclophosphamide” and the pharmacological activities [5] was “excellent pharmacological activities as compared with R-(+)-cyclophosphamide”. The ID50 [3, 6] was 14.6 mg/kg, the ID90 [3, 6] was 26.3 mg/kg and the “anti-tumor effect against P388-Tumor” value ([3]; compared with R-(+)-cyclophosphamide and racemic form) was “better than those of R-(+)-cyclophosphamide and racemic form of cyclophosphamide”. For the same molecule, the LD50 [4] was 330 mg/kg.
